Results from the supplement of paper PMC10307832.

Key:
Test in all cases: relative viability (nuclei count vs DMSO), 5 days (fraction); higher = more cells survive
IMD-0354 + OSI-027 = compound: O=C(Nc1cc(C(F)(F)F)cc(C(F)(F)F)c1)c1cc(Cl)ccc1O [IMD-0354] + COc1cccc2cc(-c3nc([C@H]4CC[C@H](C(=O)O)CC4)n4ncnc(N)c34)[nH]c12 [OSI-027] (partner 0.5 µM)
Summary of the method: (§1)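 After 5 days of treatment, lung cancer cells in 1536-well plates were fixed and stained in a single step (final 0.05% Triton X-100, 1% formaldehyde, 1 ug/ml Hoechst) and their nuclei counted on 4× images. Treatment had been applied by pin tool the day after seeding as one drug alone or as a fixed anchor-drug dose with five library-drug doses (not always all listed) in √10 steps. Relative viability is the nuclei count of treated wells divided by that of vehicle wells, and values are medians of duplicate plates.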

CX-5461 + Lapatinib = compound: Cc1cnc(CNC(=O)c2c(=O)c3ccc(N4CCCN(C)CC4)nc3n3c2sc2ccccc23)cn1 [CX-5461] + CS(=O)(=O)CCNCc1ccc(-c2ccc3ncnc(Nc4ccc(OCc5cccc(F)c5)c(Cl)c4)c3c2)o1 [Lapatinib] (partner 2 µM)
Summary of the method: as §1

IMD-0354 + AZD7762 = compound: O=C(Nc1cc(C(F)(F)F)cc(C(F)(F)F)c1)c1cc(Cl)ccc1O [IMD-0354] + NC(=O)Nc1cc(-c2cccc(F)c2)sc1C(=O)N[C@H]1CCCNC1 [AZD7762] (partner 0.2 µM)
Summary of the method: as §1

CX-5461 + Foretinib = compound: Cc1cnc(CNC(=O)c2c(=O)c3ccc(N4CCCN(C)CC4)nc3n3c2sc2ccccc23)cn1 [CX-5461] + COc1cc2c(Oc3ccc(NC(=O)C4(C(=O)Nc5ccc(F)cc5)CC4)cc3F)ccnc2cc1OCCCN1CCOCC1 [Foretinib] (partner 0.25 µM)
Summary of the method: as §1

Row | Cell Line | relative viability (IMD-0354 + OSI-027; first compound 0.04 µM) | relative viability (IMD-0354 + OSI-027; first compound 0.1265 µM) | relative viability (IMD-0354 + OSI-027; first compound 0.4 µM) | relative viability (IMD-0354 + OSI-027; first compound 1.265 µM) | relative viability (IMD-0354 + OSI-027; first compound 4 µM) | relative viability (CX-5461 + Lapatinib; first compound 0.01 µM) | relative viability (CX-5461 + Lapatinib; first compound 0.03162 µM) | relative viability (CX-5461 + Lapatinib; first compound 0.1 µM) | relative viability (CX-5461 + Lapatinib; first compound 0.3162 µM) | relative viability (CX-5461 + Lapatinib; first compound 1 µM) | relative viability (IMD-0354 + AZD7762; first compound 0.04 µM) | relative viability (IMD-0354 + AZD7762; first compound 0.1265 µM) | relative viability (IMD-0354 + AZD7762; first compound 0.4 µM) | relative viability (IMD-0354 + AZD7762; first compound 1.265 µM) | relative viability (IMD-0354 + AZD7762; first compound 4 µM) | relative viability (CX-5461 + Foretinib; first compound 0.01 µM) | relative viability (CX-5461 + Foretinib; first compound 0.03162 µM) | relative viability (CX-5461 + Foretinib; first compound 0.1 µM) | relative viability (CX-5461 + Foretinib; first compound 0.3162 µM) | relative viability (CX-5461 + Foretinib; first compound 1 µM)
1 | NCI-H1975 | 0.917 | 0.6 | 0.402 | 0.205 | 0.155 | 1.14 | 0.921 | 0.855 | 0.927 | 0.386 | 0.781 | 0.771 | 0.655 | 0.724 | 0.266 | 0.971 | 0.896 | 1.03 | 0.981 | 0.521
2 | NCI-H1993 | 0.576 | 0.504 | 0.562 | 0.522 | 0.482 | 0.769 | 0.84 | 0.881 | 0.802 | 0.762 | 0.853 | 0.645 | 0.711 | 0.328 | 0.529 | 0.738 | 0.779 | 0.813 | 0.746 | 0.788
3 | NCI-H2085 | 0.773 | 0.78 | 0.522 | 0.362 | 0.212 | 0.806 | 0.718 | 0.667 | 0.324 | 0.615 | 1.18 | 1.12 | 0.754 | 0.324 | 0.359 | 0.961 | 1.07 | 0.92 | 0.864 | 0.826
4 | NCI-H2087 | 0.496 | 0.646 | 0.189 | 0.119 | 0.112 | 1.13 | 1.18 | 1.18 | 0.407 | 0.507 | 1.6 | 1.07 | 0.637 | 0.235 | 0.392 | 1.17 | 1.43 | 1.01 | 1.14 | 0.787
5 | NCI-H2126 | 0.752 | 0.609 | 0.594 | 0.588 | 0.524 | 0.786 | 0.803 | 0.727 | 0.622 | 0.72 | 1.24 | 1.05 | 0.697 | 0.566 | 0.346 | 1.28 | 1.3 | 1.16 | 1.39 | 0.838
6 | NCI-H2170 | 0.764 | 0.673 | 0.475 | 0.547 | 0.231 | 0.305 | 0.261 | 0.283 | 0.207 | 0.296 | 0.946 | 0.978 | 0.818 | 0.767 | 0.151 | 0.964 | 1.01 | 0.944 | 1.07 | 1
7 | NCI-H2347 | 0.37 | 0.331 | 0.42 | 0.294 | 0.335 | 0.941 | 0.931 | 0.963 | 0.524 | 0.778 | 0.829 | 0.838 | 0.617 | 0.281 | 0.345 | 0.994 | 1.11 | 0.947 | 0.842 | 0.849
8 | NCI-H2405 | 0.696 | 0.601 | 0.552 | 0.312 | 0.307 | 1.18 | 1.07 | 1.18 | 0.541 | 0.808 | 0.964 | 0.829 | 0.514 | 0.29 | 0.414 | 1.03 | 1.08 | 1.04 | 0.952 | 1.03
9 | NCI-H3122 | 1.08 | 0.851 | 0.505 | 0.223 | 0.114 | 1.01 | 0.992 | 0.897 | 1 | 0.854 | 1.05 | 1.05 | 0.623 | 0.271 | 0.133 | 0.915 | 0.906 | 0.941 | 0.929 | 0.974
10 | PC-3 [JPC-3] | 0.845 | 0.708 | 0.605 | 0.344 | 0.282 | 0.453 | 0.443 | 0.464 | 0.421 | 0.473 | 1.01 | 0.751 | 0.64 | 0.291 | 0.355 | 1.07 | 1.06 | 0.984 | 0.986 | 1.01
11 | PC-14 | 0.972 | 0.805 | 0.284 | 0.115 | 0.0708 | 0.328 | 0.457 | 0.304 | 0.104 | 0.337 | 0.424 | 0.391 | 0.145 | 0.128 | 0.108 | 1 | 1.04 | 1.04 | 0.962 | 0.887
12 | RERF-LC-KJ | 0.649 | 0.628 | 0.493 | 0.198 | 0.214 | 0.785 | 0.701 | 0.877 | 0.637 | 0.765 | 1.1 | 1 |  | 0.327 | 0.184 | 0.893 | 0.964 | 0.998 | 0.765 | 0.815
